In US11096968B2, “Use of anti-aging glycoprotein for enhancing survival of neurosensory precursor cells” (PROTOKINETIX INC., priority 2016, dated 2021):

Legend:
[1] = system: COX-2 expression in stressed ARPE-19 cells; experiment: COX-2 expression by RT-qPCR in ARPE-19 cell stress assay (IL-1β followed by ATP); format: cell-based, human; details: stressed ARPE-19 cells (17 ng/ml IL-1β 8 h, then 5 mM ATP 1 h) in presence of 4 mg/ml AAGP; normalized to GAPDH; n=4
Protocol: (§1) FIG. 2 illustrates that AAGP™ reduces the amount of prostaglandin E2 (PGE2) secreted by degenerating explants and the level of COX-2 expression. PGE2 is toxic to photoreceptor precursor cells (PPCs). (A) Rat retinal explants were cultured in explant medium with or without 4 mg/ml AAGP (n=3 for each condition). Explant media was replaced after 24 hours and replenished every other day with medium not containing AAGP. After ten days, explant medium was collected and processed for PGE2 ELISA. Histograms represent the amount of PGE2 (pg/ml) present in the explant medium. (B) COX-2 expression was assessed by RT-qPCR in stressed ARPE-19 cells in the presence or absence of 4 mg/ml AAGP (n=4). Histograms represent fold change in COX-2 expression, normalized to GAPDH. (C) Cultured PPCs were treated with increasing amounts of PGE2 for 48 hours, followed by the MTT assay (n=4). […]
To determine whether AAGP™ inhibits COX-2 expression, ARPE-19 cells (Dunn et al., 1996) are treated with 17 ng/ml Interleukin 1β (IL-1β; Sigma; Lukiw et al., 2006) for 8 hours and then added 5 mM ATP for 1 hour to further induce cell stress (Sigma; Mehta et al., 2001). […] COX-2 expression is assessed using Reverse Transcription Quantitative Polymerase Chain Reaction (RT-qPCR) with the TaqMan® primer/probe system, Fast Advanced Master Mix and the ViiA™ 7 Real Time PCR system (Applied Biosystems). […]

[2] = system: prostaglandin E2 (PGE2) secreted by degenerating retinal explants; experiment: PGE2 ELISA of explant medium from ex vivo retinal explant/RPE co-culture; format: cell-based, rat; details: 4 mg/ml AAGP present for the first day, medium collected after 10 days of co-culture; n=3; p<0.05; without AAGP ~20 pg/ml
Protocol: as §1, with “GAPDH.” for “GAPDH. (C) Cultured PPCs were treated with increasing amounts of PGE2 for 48 hours, followed by the MTT assay (n=4).”
(§2) Firstly, the amount of PGE2 produced is determined within the ex vivo system under normal culture conditions and after media is supplemented with 4 mg/ml AAGP for the first 24 hours of co-culture. Three equal-sized retinal quadrants, measuring ˜10 mm^2 each, and are analyzed for each condition. Explant media are collected at the end of 10 days and assessed for concentration of PGE2 by enzyme-linked immunosorbent assay (ELISA; R&D Systems). PGE2 induced reduction in metabolic activity, contributing to cell death, is assessed in PPCs cultured in isolation using a Thiazolyl Blue Tetrazolium Bromide (MTT) assay (Sigma).

PPCs = experiment: Toxicity of AAGP to PPCs (unpublished data); format: cell-based, human; details: 4 mg/ml
Protocol: Now referring to FIG. 1, within the ex vivo system, rat neurosensory retinal explants are incubated upon human embryonic stem cells (hESC) derived retinal pigment epithelium (RPE). Neurosensory retina was obtained from the S334ter-4 model of retinal degeneration (Chen et al, 1995) and cultured within the system for 10 days (for detailed experimental design see Yanai et al., 2015). Rodent retinal tissue collection was carried out with approval of the Animal Care Committee at the University of British Columbia and in accordance with the Association for Research in Vision and Ophthalmology Statement for the Use of Animals in Ophthalmic and Vision Research. Throughout the present study, AAGP™ was used at 4 mg/ml, after it was confirmed it was not toxic to PPCs at this concentration (unpublished data).

[3] = system: photoreceptor precursor cells (PPCs); experiment: PPC survival in ex vivo co-culture system, viable labelled PPCs counted by FACS; format: cell-based, human; details: PPCs pre-treated 24 hours with 4 mg/ml AAGP, 10 days of co-culture
Protocol: FIG. 3 illustrates that Cell survival is enhanced by pre-incubation with AAGP™. Untreated or AAGP™-treated PPCs are fluorescently labelled and placed between retinal explants and RPE for ten days (n=4). Live PPCs are separated by Fluorescence-Activated Cell Sorting and the proportion of cells surviving after 10 days of co-culture was calculated. Percent cell survival of untreated and AAGP-treated PPCs was plotted ( ? ) and for each condition the average±SEM is represented by a thick black line.
To determine whether AAGP™ improves PPC survival in the ex vivo system, PPC cell viability is assessed with and without pre-treating cell grafts with AAGP™ for 24 hours prior to inclusion within the ex vivo system. PPCs are labelled with 20 μM CellTrace™ Far Red DDAO-SE (Life Technologies). […] After 10 days, the components of the co-culture system are enzymatically dissociated into single cell suspensions and the number of viable PPCs is assessed by Fluorescence-Activated Cell Sorting (FACS; Influx Sorter; BD Biosciences).
Finally, the viability of PPCs in the ex vivo system is tested. […] Ten days later, the co-cultured components were dissociated into single cells and viable PPCs (labeled red) were separated by Fluorescence activated cell sorting (FACS, FIG. 3). The proportion of live cells remaining after 10 days of co-culture is calculated. […]

[4] = system: photoreceptor precursor cells (PPCs); experiment: MTT assay of cultured PPCs treated with increasing amounts of PGE2; format: cell-based, human; details: PPCs cultured 48 hours with increasing PGE2, up to 50 μM; n=4
Protocol: as §1, with “GAPDH.” for “GAPDH. (C) Cultured PPCs were treated with increasing amounts of PGE2 for 48 hours, followed by the MTT assay (n=4).”
as §2, with “(Sigma). […]” for “(Sigma).”

| SMILES | decline in COX-2 expression [1] | amount of PGE2 in explant medium [2] | toxicity to PPCs (PPCs) | increase in average cell viability vs. untreated PPCs [3] | reduction of cell survival (MTT) [4] |
| --- | --- | --- | --- | --- | --- |
| C[C@H](NC(=O)[C@H](C)NC(=O)[C@@H](N)CCCCNC(=O)C(F)(F)C1(O)O[C@H](CO)[C@H](O)[C@H](O)[C@H]1O)C(=O)O (some centres unmarked) [AAGP™] | at least 13.3±4.5 fold | ~7.5 pg/mL | not toxic | ~3 fold | – |
| CCCCC[C@H](O)/C=C/[C@H]1[C@H](O)CC(=O)[C@@H]1C/C=C\CCCC(=O)O [PGE2, prostaglandin E2] | – | – | – | – | up to 44% |
